pIC50: −log10 of the molar value. Where two headings read alike, the source gives them in different places.
Experiments:
[1] = Compound 1 2 mg/kg intravenous, semi-quantitative
Experimental: Rats with surgically placed bile duct and jugular vein cannula were purchased from Charles River Laboratories and allowed to acclimate for 2 days. […] Bile was collected at time-points 0-2, 2-5, 5-8, and 8-24 hrs post-dose in 8 mL scintillation vials and stored at −40° C. until LC-MS/MS analysis.
Analyses were performed using a Waters YMC ODS-AQ column (2.1×150 mm; 3 μm) linked to a Shimadzu LC-10AD VP with SCL-10A VP system controller. Tandem mass spectrometric (MS/MS) detection was carried out on a Sciex ABI3200 QTrap in the positive ion mode (ESI) by multiple reaction monitoring, precursor ion scan, and enhanced product ion scan. The mobile phases contained 10 mM ammonium acetate in water with 0.05% formic acid (solvent A) and 10 mM ammonium acetate in 50% acetonitrile/50% methanol with 0.05% formic acid (solvent B). […] Analytes were separated using a linear gradient as follows:
Analytes were separated using a linear gradient as follows:

[2] = molecular target: Cytochrome P450 Enzyme 2C19 (Homo sapiens, UniProt P33261); test: Extracellular cytochrome P450 inhibition, CYP2C19
Experimental: (§1) In general, microsomes at protein concentrations as defined in Table 12 were mixed with buffer (100 mM KH2PO4, pH 7.4), MgCl2 (6 mM)) and substrate, and were kept on ice. Aliquots of this mixture (89 μL) were delivered to each well of a 96-well polypropylene plate which contained an aliquot of inhibitor (1 μL) in acetonitrile:water (1:1). Final solvent concentrations were less than 1% (v/v). Incubations were initiated with the addition of 10 μL β-NADPH (10 mM stock) to a final volume of 100 μL. […] Samples were centrifuged at 4° C., and supernatant was transferred for LC-MS/MS analysis.

[3] = Properties of the amorphous phase; assay type: physicochemical; conditions: from 0% to 90% relative humidity
[4] = Canine studies of formulations; assay type: in vivo; conditions: oral formulations
[5] = molecular target: Cytochrome P450 Enzyme 2C9 (Homo sapiens, UniProt P11712); test: Extracellular cytochrome P450 inhibition, CYP2C9; assay type: in vitro ADME; conditions: diclofenac 4′-hydroxylation, microsomes
Experimental: as §1

[6] = molecular target: Cytochrome P450 Enzyme 2D6 (Homo sapiens, UniProt P10635); test: Extracellular cytochrome P450 inhibition, CYP2D6; assay type: in vitro ADME; conditions: dextromethorphan O-demethylation, microsomes
Experimental: as §1

[7] = molecular target: T1, Cytochrome P450 Enzyme 1A2 (Homo sapiens, UniProt P05177)
T1 sequence (P05177 1-516): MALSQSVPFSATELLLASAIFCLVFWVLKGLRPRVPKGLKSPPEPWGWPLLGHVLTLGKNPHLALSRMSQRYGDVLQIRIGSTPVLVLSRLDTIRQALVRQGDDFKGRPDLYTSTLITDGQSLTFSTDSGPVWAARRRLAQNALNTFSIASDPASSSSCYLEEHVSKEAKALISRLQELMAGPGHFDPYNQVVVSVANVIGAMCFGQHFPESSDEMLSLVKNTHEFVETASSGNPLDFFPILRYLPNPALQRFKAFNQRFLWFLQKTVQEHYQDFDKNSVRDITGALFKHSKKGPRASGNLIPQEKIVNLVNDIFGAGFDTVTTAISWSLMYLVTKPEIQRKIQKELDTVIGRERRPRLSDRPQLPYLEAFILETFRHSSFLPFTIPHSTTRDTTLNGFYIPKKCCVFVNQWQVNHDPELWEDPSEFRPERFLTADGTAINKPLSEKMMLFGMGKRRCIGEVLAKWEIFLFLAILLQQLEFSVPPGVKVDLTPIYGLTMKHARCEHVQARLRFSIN
Experimental: as §1

[8] = molecular target: Cytochrome P450 Enzyme 3A4 (Homo sapiens, UniProt P08684); conditions: microsomes
Experimental: as §1

[9] = tested on: mouse model of ovalbumin (OVA)-induced allergic rhinitis; test: Mouse allergic rhinitis model; assay type: in vivo; conditions: daily 10 mg/kg PO, OVA-primed and challenged mice
[10] = tested on: DK-PGD2-induced peripheral blood leukocyte influx; test: Guinea pig IV-DKPGD2-induced peripheral blood leukocyte influx; assay type: in vivo; conditions: for ED50: Cavia porcellus, Leukocyte, oral
Experimental: Methods were adapted from those detailed Shichijo et al., 2003, Journal of Pharmacology and Experimental Therapeutics, 307:518-525. Male Hartley guinea pigs were immunized with ovalbumin (OVA) on day 0 by intraperitoneal (IP) injection of 1 ml of a 100 μg/ml solution in Imject Alum. They were then used in the DK-PGD2 procedure between days 14 and 21. Subjects were randomly assigned to receive either vehicle (0.5% methyl cellulose, 4 ml/kg, oral (PO)) or one of three to four doses of test compound. Two hours or eighteen hours after dosing, animals were anesthetized with ketamine and challenged with DK-PGD2 (1 mg/kg, IV). Thirty minutes after IV administration, blood was collected via the marginal ear vein into EDTA tubes for cell analysis. 10 μl blood was lysed in 190 μl water followed by a further 20-fold dilution in PBS. A 10 μl fraction was mixed with equal parts trypan blue and loaded on a hemocytometer. Cells were visualized at a magnification of 40× using a LabPro light microscope and totals counted and recorded. Cells are expressed as total cells×10^8 per ml of blood. Inhibition of this effect by select compounds is determined statistically using Graphpad prism.

[11] = tested on: guinea pig OVA model of allergen-induced asthma; test: Guinea pig allergic asthma model; assay type: in vivo; conditions: 3 mg/kg and 30 mg/kg b.i.d. PO, 24 hours after aerosolized OVA challenge
Experimental: Aerosolized OVA challenge to OVA-primed guinea pigs causes a significant influx of cells into the bronchoalveolar lavage fluid taken 24 hours after challenge. This increase is primarily from influx of eosinophils and neutrophils with a small proportion from macrophages.

in vivo = conditions: Hartley, guinea pig, plasma, po
DP2 receptor = molecular target: T2, DP2 receptor (Homo sapiens, UniProt Q9Y5Y4); test: Phase I study, ex vivo PGD2-induced blood eosinophil shape change (ESC); assay type: in vivo; design: endogenous in cells; host or cells: eosinophils in human whole blood; conditions: humans
T2 sequence (Q9Y5Y4 1-395): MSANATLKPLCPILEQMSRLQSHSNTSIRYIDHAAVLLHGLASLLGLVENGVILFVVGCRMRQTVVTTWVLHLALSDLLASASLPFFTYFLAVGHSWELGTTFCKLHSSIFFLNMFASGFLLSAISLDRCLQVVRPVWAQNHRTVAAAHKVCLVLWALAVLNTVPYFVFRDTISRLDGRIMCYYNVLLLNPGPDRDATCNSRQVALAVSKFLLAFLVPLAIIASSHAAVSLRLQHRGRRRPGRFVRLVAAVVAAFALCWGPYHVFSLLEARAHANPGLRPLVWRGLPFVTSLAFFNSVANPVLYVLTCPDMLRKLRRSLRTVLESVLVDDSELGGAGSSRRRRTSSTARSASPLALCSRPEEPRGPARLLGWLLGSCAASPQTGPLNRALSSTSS
Experimental: Blood is drawn from consenting human volunteers in EDTA vacutainer tubes and used within 1 hr of draw. […] The blood is vortexed and incubated at 37° C. for 5 minutes. 5 μl of 1 μM PGD2 in PBS is added for a final concentration of 50 nM and the tubes briefly vortexed. The reactions are incubated for exactly 5 minutes at 37° C. and then terminated by placing the tubes on ice and immediately adding 250 μl of ice-cold 1:4 diluted Cytofix (BD Biosciences). The reactions are transferred to 12×75 mM polystyrene round bottom tubes and the red blood cells lysed by the addition of 3 ml ammonium chloride lysing solution (150 mM NH4Cl, 10 mM KHCO3, 0.1 mM EDTA disodium salt) and incubation at room temperature for 15 minutes. […] The cells are resuspended in 0.2 ml of ice-cold 1:4 diluted Cytofix (BD Biosciences) and analyzed on a FACSCalibur (BD Biosciences) within 2 hours. […] The specific change in shape induced by PGD2 was calculated as the difference between the percentage of high forward scatter eosinophils in the presence and absence of PGD2.
At varying times after dosing blood is drawn for both pharmacokinetic analyses of drug concentration in blood, and also for PGD2 challenge and eosinophil shape change determination. The extent of receptor blockage is determined from the relationship between drug blood concentration and percentage inhibition of eosinophil shape change.

Cytochrome P450 Enzyme 2C19, sequence (P33261 whole entry): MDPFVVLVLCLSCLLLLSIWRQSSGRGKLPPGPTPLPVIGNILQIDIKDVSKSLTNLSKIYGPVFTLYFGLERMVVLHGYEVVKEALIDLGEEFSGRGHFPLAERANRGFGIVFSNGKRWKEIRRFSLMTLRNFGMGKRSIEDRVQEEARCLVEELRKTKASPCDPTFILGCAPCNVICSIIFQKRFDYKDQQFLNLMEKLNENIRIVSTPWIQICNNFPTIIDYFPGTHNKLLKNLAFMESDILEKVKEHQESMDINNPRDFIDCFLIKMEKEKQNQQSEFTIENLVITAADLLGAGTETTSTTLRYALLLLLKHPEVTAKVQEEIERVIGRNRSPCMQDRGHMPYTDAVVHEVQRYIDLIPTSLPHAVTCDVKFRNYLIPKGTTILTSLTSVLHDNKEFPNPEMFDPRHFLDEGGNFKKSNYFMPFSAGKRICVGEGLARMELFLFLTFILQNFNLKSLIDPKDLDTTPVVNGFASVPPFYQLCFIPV
Cytochrome P450 Enzyme 3A4, sequence (P08684 whole entry): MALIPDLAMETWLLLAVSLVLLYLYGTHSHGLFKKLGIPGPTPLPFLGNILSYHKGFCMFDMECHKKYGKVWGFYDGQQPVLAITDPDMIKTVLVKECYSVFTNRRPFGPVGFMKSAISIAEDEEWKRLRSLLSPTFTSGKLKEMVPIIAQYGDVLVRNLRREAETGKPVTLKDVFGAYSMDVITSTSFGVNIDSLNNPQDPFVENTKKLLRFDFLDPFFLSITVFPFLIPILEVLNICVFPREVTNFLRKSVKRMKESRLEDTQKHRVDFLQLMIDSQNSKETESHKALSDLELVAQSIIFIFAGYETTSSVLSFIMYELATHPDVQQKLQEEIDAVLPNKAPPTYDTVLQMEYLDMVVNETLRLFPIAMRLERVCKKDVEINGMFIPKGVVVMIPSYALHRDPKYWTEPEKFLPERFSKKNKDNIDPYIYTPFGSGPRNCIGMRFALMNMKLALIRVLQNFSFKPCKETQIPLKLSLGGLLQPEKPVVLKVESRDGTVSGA
Cytochrome P450 Enzyme 2D6, sequence (P10635 whole entry): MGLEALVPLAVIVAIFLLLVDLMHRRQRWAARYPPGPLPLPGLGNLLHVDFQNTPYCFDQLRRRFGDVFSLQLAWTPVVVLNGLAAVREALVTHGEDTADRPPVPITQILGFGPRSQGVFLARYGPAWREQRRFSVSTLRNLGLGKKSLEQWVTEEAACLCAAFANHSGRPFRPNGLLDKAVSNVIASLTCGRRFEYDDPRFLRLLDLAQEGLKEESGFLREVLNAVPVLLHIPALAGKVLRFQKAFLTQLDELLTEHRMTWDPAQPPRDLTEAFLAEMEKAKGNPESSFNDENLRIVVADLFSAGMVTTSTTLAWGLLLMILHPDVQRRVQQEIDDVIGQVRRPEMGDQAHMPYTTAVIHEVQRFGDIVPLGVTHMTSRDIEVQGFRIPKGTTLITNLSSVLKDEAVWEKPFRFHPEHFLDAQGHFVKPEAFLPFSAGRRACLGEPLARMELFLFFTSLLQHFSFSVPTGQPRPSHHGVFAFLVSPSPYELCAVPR
Cytochrome P450 Enzyme 2C9, sequence (P11712 whole entry): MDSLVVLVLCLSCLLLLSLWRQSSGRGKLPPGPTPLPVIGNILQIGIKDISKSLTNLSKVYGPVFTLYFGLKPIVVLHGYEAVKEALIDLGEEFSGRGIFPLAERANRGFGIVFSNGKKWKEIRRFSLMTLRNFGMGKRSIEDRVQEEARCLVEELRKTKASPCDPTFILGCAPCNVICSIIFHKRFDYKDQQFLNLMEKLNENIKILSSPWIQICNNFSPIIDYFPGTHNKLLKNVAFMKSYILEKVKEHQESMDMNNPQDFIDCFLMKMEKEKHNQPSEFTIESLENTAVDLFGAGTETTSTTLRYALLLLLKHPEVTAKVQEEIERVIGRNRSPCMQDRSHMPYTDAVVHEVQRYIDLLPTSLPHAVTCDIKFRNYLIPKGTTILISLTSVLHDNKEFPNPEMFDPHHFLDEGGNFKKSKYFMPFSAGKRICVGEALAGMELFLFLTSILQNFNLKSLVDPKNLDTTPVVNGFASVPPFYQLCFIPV

Structure (SMILES): CCN(Cc1cc(C(F)(F)F)ccc1-c1cc(CC(=O)O[C@@H]2O[C@H](C(=O)O)[C@@H](O)[C@H](O)[C@H]2O)ccc1OC)C(=O)NCc1ccccc1 [Compound M2, acyl gluconuride of [2′-(3-benzyl-1-ethyl-ureidomethyl)-6-methoxy-4′-trifluoromethyl-biphenyl-3-yl]-acetic acid]
- metabolite in rat bile, peak area relative to parent [1]: 273 % of parent

Structure (SMILES): CCC1(c2ccccc2)C(=O)NC(=O)N(Cc2ccccc2)C1=O (single isomer, unassigned; (-)) [(-)-N-3-benzyl-phenobarbital, reference compound]
- pIC50 ([2]; mephenytoin 4′-hydroxylation, microsomes): 5.92

Structure (SMILES): CCN(Cc1cc(C(F)(F)F)ccc1-c1cc(CC(=O)[O-])ccc1OC)C(=O)NCc1ccccc1.[Na+] [Compound 2, [2′-(3-benzyl-1-ethyl-ureidomethyl)-6-methoxy-4′-trifluoromethyl-biphenyl-3-yl]-acetic acid, sodium salt]
- hygroscopicity, weight change [3]: 36%
- absorption [4]: rapidly absorbed in the stomach and upper gastrointestinal tract
- pIC50 [5]: < 4.30
- pIC50 [2]: < 4.30
- pIC50 [6]: < 4.30
- pIC50 [7]: < 4.30
- pIC50 ([8]; IC50, midazolam 1-hydroxylation): 4.40
- pIC50 ([8]; IC50, testosterone 6β-hydroxylation): < 4.30
- nasal rubs [9]: trend toward a decrease
- sneezing behavior [9]: significantly reduced sneezing behavior
- associated EC50 (plasma concentration) ([10]; 2 hr study): 0.055 µM
- inhibition of DK-PGD2-induced peripheral blood leukocyte increase ([10]; 2 hr study, oral 0.1 mg/kg): 21%
- inhibition of DK-PGD2-induced peripheral blood leukocyte increase ([10]; 2 hr study, oral 1 mg/kg): 59%
- inhibition of DK-PGD2-induced peripheral blood leukocyte increase ([10]; 2 hr study, oral 10 mg/kg): 62%
- inhibition of DK-PGD2-induced peripheral blood leukocyte increase ([10]; 2 hr study, oral 30 mg/kg): 80%
- observed EC50 ([10]; 18 hr study): < 0.04 µM
- inhibition of peripheral blood leukocyte numbers ([10]; 18 hr study, oral 1 mg/kg): 0%
- inhibition of peripheral blood leukocyte numbers ([10]; 18 hr study, oral 10 mg/kg): 29%
- inhibition of peripheral blood leukocyte numbers ([10]; 18 hr study, oral 30 mg/kg): 50%
- inhibition of peripheral blood leukocyte numbers ([10]; 18 hr study, oral 100 mg/kg): 77%
- ED50 ([10]; 2 hr study, read-out: ED50): 0.85 mg/kg
- ED50 ([10]; 18 hr study, read-out: calculated ED50): 30 mg/kg
- cellular influx into bronchoalveolar lavage fluid [11]: dose-dependently reduced total cellular influx including eosinophils and neutrophils
- concentration at 2.5 h (in vivo; 0.1 mg/kg): 22 nM
- concentration at 2.5 h (in vivo; 1 mg/kg): 61 nM
- concentration at 2.5 h (in vivo; 10 mg/kg): 222 nM
- concentration at 2.5 h (in vivo; 30 mg/kg): 727 nM
- inhibition at 100 mg (DP2 receptor; at 24 hours, 100 mg dose): 75 to 90%
- inhibition of the PGD2-induced eosinophil shape change (ESC) (DP2 receptor; at Cmax, doses equal to or greater than 30 mg): 80-100%

Reference: patent publication US9572785B2, “DP2 antagonist and uses thereof” (Brickell Biotech, Inc., priority 2009, dated 2017)
